Reference: article PMC10892423 (Pharmaceutics, 2024)

How the values were obtained:
NDM-1 = target: T1, NDM-1 (Klebsiella pneumoniae, UniProt C7C422); test: β-lactamase inhibition, imipenem hydrolysis; assay type: biochemical; conditions: imipenem substrate; read-out: β-Lactamases, IC50 NDM-1
T1 construct: purchased RayBiotech, Inc. 230-00554
Description: (§1) Recombinant AmpC from Escherichia coli was produced according to a previously reported protocol. KPC-2 and NDM-1 […] were purchased from LifeSpan Biosciences, Inc. (Lynnwood, WA, USA) (LS-G26598) and RayBiotech, Inc. (Peachtree Corners, GA, USA) (230-00554), respectively. Genes encoding OXA-48 (residues 23–265) and VIM-2 (residues 27–266) were custom-synthesized (Bioneer Inc., Seoul, Republic of Korea) and expressed as previously described. The β-lactamase inhibitory activity of the title compounds was then determined according to the previously reported methods. Briefly, equal volumes (100 μL) of the title compounds (70–0.1 μM in PBS) and diluted enzyme stock were mixed (final concentration 2% of DMSO in 200 μL) in 96-well plates, which were then incubated at 37 °C for 20 min. The incubated mixture was added to each well containing substrates (nitrocefin for AmpC, KPC-2, OXA-48, and VIM-2; and imipenem for NDM-1) of final concentrations of 70 μM for nitrocefin and 100 μM for imipenem. Substrate hydrolysis was monitored at 486 nm (nitrocefin) or 300 nm (imipenem) for 15 min, using a Cytation 5 imaging multimode reader (BioTek Instruments Inc., Winooski, VT, USA). At the plateau level of hydrolysis, the corresponding rates of hydrolysis were compared to those obtained without inhibitors (100%) to determine the percentage of enzyme inhibition at each concentration of the title compounds. The IC50 values of the compounds were derived from sigmoidal dose–response curves, using GraphPad Prism 5 (GraphPad Software, Boston, MA, USA).

OXA-48 = target: T2, OXA-48 (Klebsiella pneumoniae, UniProt Q6XEC0); test: β-lactamase inhibition, nitrocefin hydrolysis; assay type: biochemical; conditions: nitrocefin substrate; read-out: β-Lactamases, IC50 OXA-48
T2 construct: Genes encoding OXA-48 (residues 23–265) and VIM-2 (residues 27–266) were custom-synthesized; made in house
T2 sequence (Q6XEC0 23-265 limits assumed): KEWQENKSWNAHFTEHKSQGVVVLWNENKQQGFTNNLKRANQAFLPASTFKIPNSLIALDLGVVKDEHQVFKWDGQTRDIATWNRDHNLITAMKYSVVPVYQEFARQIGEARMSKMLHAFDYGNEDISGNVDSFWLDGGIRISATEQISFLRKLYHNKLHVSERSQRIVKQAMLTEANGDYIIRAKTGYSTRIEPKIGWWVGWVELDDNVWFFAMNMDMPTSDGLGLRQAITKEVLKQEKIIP
Description: as §1

KPC-2 = target: T3, KPC-2 (Klebsiella pneumoniae, UniProt Q9F663); test: β-lactamase inhibition, nitrocefin hydrolysis; assay type: biochemical; conditions: nitrocefin substrate; read-out: β-Lactamases, IC50 KPC-2
T3 construct: purchased LifeSpan Biosciences, Inc. LS-G26598
T3 sequence (Q9F663 25-293, looked up): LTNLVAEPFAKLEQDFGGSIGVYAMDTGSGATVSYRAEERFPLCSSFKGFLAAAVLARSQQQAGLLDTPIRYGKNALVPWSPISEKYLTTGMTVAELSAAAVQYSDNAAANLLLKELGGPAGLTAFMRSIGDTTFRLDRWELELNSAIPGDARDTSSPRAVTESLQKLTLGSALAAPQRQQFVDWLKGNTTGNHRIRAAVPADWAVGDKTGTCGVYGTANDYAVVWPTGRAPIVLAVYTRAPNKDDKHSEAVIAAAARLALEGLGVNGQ
Description: as §1

VIM-2 = target: T4, VIM-2 (Escherichia coli, UniProt Q5U7L7); test: β-lactamase inhibition, nitrocefin hydrolysis; assay type: biochemical; conditions: nitrocefin substrate; read-out: β-Lactamases, IC50 VIM-2
T4 construct: Genes encoding OXA-48 (residues 23–265) and VIM-2 (residues 27–266) were custom-synthesized; made in house
Description: as §1

AmpC = target: T5, AmpC (Escherichia coli, UniProt P00811); test: β-lactamase inhibition, nitrocefin hydrolysis; assay type: biochemical
T5 construct: made in house
T5 sequence (P00811 20-377): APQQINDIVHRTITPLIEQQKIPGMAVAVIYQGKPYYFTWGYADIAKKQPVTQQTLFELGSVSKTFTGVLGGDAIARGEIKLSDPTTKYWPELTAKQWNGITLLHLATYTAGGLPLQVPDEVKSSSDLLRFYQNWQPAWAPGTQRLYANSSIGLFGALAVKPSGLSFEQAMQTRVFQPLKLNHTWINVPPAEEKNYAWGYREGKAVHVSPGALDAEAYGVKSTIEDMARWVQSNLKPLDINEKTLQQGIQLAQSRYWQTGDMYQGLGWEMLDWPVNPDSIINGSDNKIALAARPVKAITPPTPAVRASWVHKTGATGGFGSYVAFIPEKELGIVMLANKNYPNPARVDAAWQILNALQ
Description: as §1

[1] = tested on: MBL-producing P. aeruginosa clinical isolates; test: MIC by broth microdilution (CLSI); assay type: cell-based, Pseudomonas aeruginosa; conditions: Pseudomonas aeruginosa
Description: The DMSO stock solutions of the test compounds were serially diluted to the desired concentrations in CAMHB. Then, 10 μL of the bacterial suspension (5 × 10^5 colony forming units (CFU)/mL) was combined with 200 μL of DMSO stock solutions of the test compounds in 96-well microtiter plates (1% DMSO, final). After the incubation of the plate at 37 °C for 24 h, bacterial growth was visibly evaluated by monitoring the turbidity of the resulting suspension, and the MICs were determined as the lowest concentrations of the test compounds that inhibited the visible growth of the bacteria.

T1 sequence (C7C422 29-270, looked up, species assumed): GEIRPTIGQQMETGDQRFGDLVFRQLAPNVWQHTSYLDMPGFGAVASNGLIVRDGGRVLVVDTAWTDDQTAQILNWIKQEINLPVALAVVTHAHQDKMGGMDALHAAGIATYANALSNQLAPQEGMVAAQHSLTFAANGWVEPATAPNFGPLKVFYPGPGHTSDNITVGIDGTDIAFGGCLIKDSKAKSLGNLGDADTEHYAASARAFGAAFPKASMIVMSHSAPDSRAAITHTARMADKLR

CN(C)CCOc1c(-c2ccc(F)c(F)c2)oc2cc(O)cc(O)c2c1=O [Compound 13]
> 50 µM: IC50 (NDM-1) | IC50 (KPC-2) | IC50 (AmpC)
> 100 µM: IC50 (OXA-48) | IC50 (VIM-2)

O=c1c(OCCC2CCOCC2)c(-c2ccc(F)c(F)c2)oc2cc(O)cc(O)c12 [Compound 30]
35.9 µM: IC50 (OXA-48)
> 100 µM: IC50 (VIM-2)
> 50 µM: IC50 (NDM-1) | IC50 (KPC-2) | IC50 (AmpC)

O=c1c(OCCOCCOCCO)c(-c2ccc(F)c(F)c2)oc2cc(O)cc(O)c12 [Compound 10]
> 50 µM: IC50 (NDM-1) | IC50 (KPC-2) | IC50 (AmpC)
> 100 µM: IC50 (OXA-48) | IC50 (VIM-2)

CN1CCCC1CCOc1c(-c2ccc(F)c(F)c2)oc2cc(O)cc(O)c2c1=O (centres unmarked) [Compound 21]
> 50 µM: IC50 (NDM-1) | IC50 (KPC-2) | IC50 (AmpC)
> 100 µM: IC50 (OXA-48) | IC50 (VIM-2)

CC(C)CCOc1c(-c2ccc(F)c(F)c2)oc2cc(O)cc(O)c2c1=O [Compound 24]
42.1 µM: IC50 (VIM-2)
39.4 µM: IC50 (KPC-2)
> 50 µM: IC50 (NDM-1) | IC50 (AmpC)
19.1 µM: IC50 (OXA-48)

CO/N=C(\C(=O)N[C@@H]1C(=O)N2C(C(=O)[O-])=C(C[N+]3(C)CCCC3)CS[C@H]12)c1csc(N)n1 [FEP, cefepime]
> 16 mg/L: MIC ([1]; PA-001, blaNDM) | MIC ([1]; PA-002, blaIMP) | MIC ([1]; PA-008, blaNDM) | MIC ([1]; PA-011, blaNDM) | MIC ([1]; PA-012, blaNDM) | MIC ([1]; PA-016, blaIMP) | MIC ([1]; PA-017, blaNDM) | MIC ([1]; PA-019, blaNDM) | MIC ([1]; PA-023, blaNDM) | MIC ([1]; PA-025, blaNDM) | MIC ([1]; PA-027, blaIMP) | MIC ([1]; PA-028, blaNDM) | MIC ([1]; PA-029, blaIMP) | MIC ([1]; PA-030, blaIMP) | MIC ([1]; PA-034, blaNDM) | MIC ([1]; PA-036, blaNDM) | MIC ([1]; PA-038, blaNDM) | MIC ([1]; PA-039, blaNDM) | MIC ([1]; PA-044, blaNDM)
16 mg/L: MIC ([1]; PA-007, blaNDM) | MIC ([1]; PA-020, blaNDM)

CC(C)(C)c1ccc(COc2c(-c3ccc(F)c(F)c3)oc3cc(O)cc(O)c3c2=O)cc1 [Compound 6]
> 50 µM: IC50 (KPC-2) | IC50 (AmpC)
> 100 µM: IC50 (VIM-2)
37.8 µM: IC50 (OXA-48)
14.1 µM: IC50 (NDM-1)

CC(C)(O/N=C(\C(=O)N[C@@H]1C(=O)N2C(C(=O)[O-])=C(C[n+]3ccccc3)CS[C@H]12)c1csc(N)n1)C(=O)O [CAZ, ceftazidime]
> 16 mg/L: MIC ([1]; PA-001, blaNDM) | MIC ([1]; PA-002, blaIMP) | MIC ([1]; PA-007, blaNDM) | MIC ([1]; PA-008, blaNDM) | MIC ([1]; PA-011, blaNDM) | MIC ([1]; PA-012, blaNDM) | MIC ([1]; PA-016, blaIMP) | MIC ([1]; PA-017, blaNDM) | MIC ([1]; PA-019, blaNDM) | MIC ([1]; PA-020, blaNDM) | MIC ([1]; PA-023, blaNDM) | MIC ([1]; PA-025, blaNDM) | MIC ([1]; PA-027, blaIMP) | MIC ([1]; PA-028, blaNDM) | MIC ([1]; PA-029, blaIMP) | MIC ([1]; PA-030, blaIMP) | MIC ([1]; PA-034, blaNDM) | MIC ([1]; PA-036, blaNDM) | MIC ([1]; PA-038, blaNDM) | MIC ([1]; PA-039, blaNDM) | MIC ([1]; PA-044, blaNDM)

O=c1c(OCCC2CC2)c(-c2ccc(F)c(F)c2)oc2cc(O)cc(O)c12 [Compound 25]
11.4 µM: IC50 (OXA-48)
> 50 µM: IC50 (AmpC)
22.7 µM: IC50 (NDM-1)
22.8 µM: IC50 (KPC-2)
13.9 µM: IC50 (VIM-2)
